In EPA's ToxValDB 9.5 (doi:10.2903/j.efsa.2010.1871):
Converted amounts (≈) assume the structure as drawn.

Assays:
Apis mellifera = conditions: acute; duration: 48 hours; dermal; mortality
Bibionidae = conditions: chronic/long-term; duration: 28 days; other
Canidae = conditions: oral, Dog Other, hematological
Daphnia magna = conditions: chronic/long-term, duration: 21 days
Lepomis macrochirus = conditions: acute; duration: 96 hours; mortality
Macromiidae = conditions: acute; duration: 96 hours; growth
Mus musculus = conditions: acute; oral; mortality
Pimephales promelas = conditions: chronic/long-term; duration: 35 days; growth
Tagia sp. = conditions: acute; duration: 14 days; mortality
Adalia sp. = assay: LR50; higher = less toxic; conditions: chronic/long-term; duration: 21 days; mortality
[1] = reproduction developmental, reproduction

SMILES: CCc1ccc(C(=O)NN(C(=O)c2cc(C)cc(C)c2)C(C)(C)C)cc1 [Tebufenozide]
- LD50 (Apis mellifera): > 234 µg/piece
- NOEC (Bibionidae): 0.0057 mg/L
- NOAEL (Canidae; chronic, duration: 52 weeks): 2 mg/kg-day
- NOAEL (Canidae; subchronic, duration: 90 days): 2 mg/kg-day
- LC50 (Colinus virginianus; acute, oral, diet, mortality): > 814 mg/kg
- LD50 (Colinus virginianus; acute, oral, mortality): > 2150 mg/kg
- NOAEL (Colinus virginianus; [1]): 48 mg/kg-day
- NOEC (Daphnia magna; growth): 0.029 mg/L
- NOEC (Daphnia magna; reproduction): 0.0078 mg/L
- LC50 (Lepomis macrochirus): 3 µg/mL (≈ 8.51 µM)
- NOEC (Macromiidae): 0.046 mg/L
- LD50 (Mus musculus): > 5000 mg/kg
- NOEC (Pimephales promelas): 0.71 mg/L
- LD50 (Rattus norvegicus; acute, oral, mortality): > 5000 mg/kg
- NOAEL (Rattus norvegicus; [1]): 15 mg/kg-day
- LC50 (Tagia sp.): > 1000 mg/kg
- NOEC (Tagia sp.): ≥ 1000 mg/kg
- LR50 (Adalia sp.): > 128 g/ha
